Type in all cases: functional, cell-based
One assay relates to P388. Put plainly: Cytotoxicity was evaluated against P388 mouse lymphoma cells.
Assay [1] can be described thus: Cytotoxicity was evaluated against […] cells.
Another assay relates to HT-29. Put plainly: Cytotoxicity was evaluated against HT-29 human colon adenocarcinoma cells.
A short description of assay [2]: Cytotoxicity was evaluated against MEL28 melanoma cells. As to conditions: Homo sapiens, SK-MEL-28.

Molecules are shown by their SMILES. Values after ≈ are worked out from the molar mass of the structure shown.

For `CC1=C2[C@@H](O)C(=O)[C@@]3(C)CC(C[C@H](OC(=O)c4ccccc4)[C@H](C[C@@H]1OC(=O)[C@H](O)[C@H](NC(=O)c1ccccc1)c1ccccc1)C2(C)C)[C@@H](O)C[C@@H]3O`, the concentration for half-maximal inhibition (IC50) (in the assay on P388; in assay [1]; with HT-29; in assay [2]) was 6 µg/mL (≈ 8.11 µM) throughout.

In the case of `CC(=O)O[C@H]1C[C@H]2[C@@H](OC(C)=O)/C=C3\C[C@](C)(C(=O)[C@H](O)C(=C1C)C2(C)C)[C@@H](O)C[C@@H]3O`, the IC50 (in the assay with P388; in assay [1]; with HT-29; in assay [2]) was greater than 10 µg/mL throughout.

As for `CC(=O)O[C@H]1C(=O)[C@@]2(C)[C@H]([C@H](OC(=O)c3ccccc3)[C@]3(O)C[C@H](OC(=O)[C@H](O)[C@@H](NC(=O)c4ccccc4)c4ccccc4)C(C)=C1C3(C)C)[C@]1(OC(C)=O)CO[C@@H]1C[C@@H]2O` [PACLITAXEL], the IC50 in the assay on P388 stood at 0.2 µg/mL (≈ 0.234 µM); in assay [1], 0.002 µg/mL (≈ 0.00234 µM); in the assay with HT-29, 0.002 µg/mL (≈ 0.00234 µM); in assay [2] it was 0.002 µg/mL (≈ 0.00234 µM).

The term IC50 denotes the midpoint of a concentration-inhibition curve.

For the origin of these results see ChEMBL document CHEMBL1130735, “A paclitaxel analogue with a 2(3-->20)abeotaxane skeleton: synthesis and biological evaluation” (Bioorg Med Chem Lett, 1998).
